Data from patent US9439976B2, “Compositions and methods for using cathepsin E cleavable substrates” (The Methodist Hospital System, priority 2013, dated 2016).
Where a SMILES comes first, the peptide text is derived from it. The star is where a group is joined. X1 = O=C(O)CCC(=O)CN*

What was measured:
[1] = system: MPanc96-CTSE cells; assay: Cellular release of 5-ALA, PpIX fluorescence imaging, Cath E-high cells; format: cell-based, human; conditions: unfixed MPanc96-CTSE cells, 0.5 μM, 37° C.
Procedure: Mpanc96-CTSE and Mpanc96-FG30 cells (1.2×10^4) were treated in 96-well plates with various concentrations (0.1, 0.5, 1, and 5 μM in 100 μL) of 5-ALA prodrug, incubated for 30 minutes at 37° C., and washed several times with PBS. Fluorescence images of the cells were acquired using an inverted epifluorescence microscope and a TRITC (tetramethyl rhodamine isothiocyanate) filter (λex=557 nm and λem=576 nm). Free 5-ALA and untreated cells were included as controls. The possible light damage done in the absence of photosensitizer was evaluated by irradiating Cath E-positive Mpanc96-CTSE cells with various doses (2.5, 5, 10, 15, and 18 J/cm^2) of light using a diode laser system (652 nm; B&W TEK, Newark, Del.). Phototoxicity of the 5-ALA prodrug was assessed by incubating Mpanc96-CTSE and Mpanc96-FG30 cells in 96-well plates with 0.1 μM 5-ALA prodrug for 30 minutes at 37° C. The cells were washed several times with PBS, the medium was replaced with growth medium, and the cells were treated with a single dose of 10 J/cm2. After PDT, the treated cells and controls were incubated overnight followed by imaging to detect changes in cell morphology.

[2] = system: PDAC (p53 conditional deletion/LSL-KrasG12D/Pdx1-Cre); assay: In vivo photodynamic therapy, TUNEL staining of PDAC pancreas in genetically engineered mice; set-up: species or system mouse; conditions: mice with PDAC, 1 mg 5-ALA equivalent/kg i.v., 10 J/cm^2 light at 652 nm 1 hour after injection, tissue 24 hours later
Procedure: All animal studies were performed in compliance with the approved animal protocols and guidelines of Institutional Animal Care and Use Committee of University of Texas MD Anderson Cancer Center. […] Littermates without PDAC served as controls. LSL-KRasG12D, p53-floxed, and Pdx-1-Cre genetic mice were obtained from the Mouse Models for Human Cancer Consortium Repository (Rockville, Md.). Mice were divided into three groups of five transgenic mice with PDAC tumors and three normal littermate controls. Mice were injected with a single dose of saline, free 5-ALA, or the 5-ALA prodrug (1 mg 5-ALA equivalent/kg, 50 μL) intravenously through the tail vein using a 30 gauge needle. Mice were incubated for 60 minutes in a full metabolically active environment and anesthetized by intraperitoneal injection of sodium pentobarbital, at a dose of 50-90 mg/kg diluted to 6 mg/ml. The pancreas was exposed through a left abdominal incision (1 cm, laparotomy) and treated with a 10-J/cm^2 dose of light using a diode laser (652 nm) and incidence fluence rate of 50 mW/cm^2 for 3.5 minutes. After PDT, the pancreas was carefully returned to the peritoneal cavity and the abdomen was closed. One day after light treatment, animals were sacrificed and the pancreases were harvested for subsequent evaluation. […]

[3] = system: MPanc96-CTSE cells; format: cell-based; conditions: human
Procedure: To determine the number of viable cells after light treatment, a homogeneous colorimetric method, the MTS Cell cytotoxicity assay (Cell Titer 96® Aqueous, Promega, Madison, Wis.) was used. MPanc96-CTSE and MPanc96-FG30 (2×10^4) cells were incubated with various concentrations (0.1, 0.5, 1, and 5 μM) of the 5-ALA prodrug for 30 minutes, followed by treatment with a range of light doses (2.5, 5, 10, and 15 J/cm^2) and incubated overnight at 37° C. and 5% CO2 in 96-well plates. Cells treated only with light or the 5-ALA prodrug were used as negative controls. […] The formation of colored formazan was measured directly in 96-well assay plates at 490 nm absorbance without additional processing. […] After PDT, MPanc96-CTSE cells were washed with PBS buffer, treated with 1 μL YO-PRO-1 and PI stock solution per milliliter medium and incubated on ice for 25 minutes, followed by fluorescence imaging using an inverted epifluorescence microscope. […]
To quantitate cell viability upon photodynamic treatment with the 5-ALA prodrug, PDAC cells were subjected to homogeneous, colorimetric MTS cytotoxicity assay. […] After incubating PDAC cells with the tetrazolium compound, living PDAC cells in culture were quantified directly by measuring the absorbance of the produced formazan product at 490 nm.

SMILES | PpIX fluorescence signal in cells (TRITC channel) [1] | Apoptosis in PDAC tissue sections (TUNEL) [2] | Cell viability (MTS) [3]
NCC(=O)CCC(=O)O [free 5-ALA, 5-aminolevulinic acid] | comparable | multiple apoptotic cells | 
CC(C)C[C@H](NC(=O)[C@H](CO)NC(=O)[C@H](Cc1ccccc1)NC(=O)CNC(=O)[C@H](C)NC(=O)[C@H](CCC(N)=O)NC(=O)[C@@H](N)CCCNC(=N)N)C(=O)NCC(=O)CCC(=O)O [5-ALA prodrug, H-Arg-Gln-Ala-Gly-Phe-Ser-Leu-5-ALA-OH] (H-RQAGFSL-X1) |  |  | approximately 20%
